Our source for the GI50 and TGI values is PubChem BioAssay (NCI).

Test systems include CCRF-CEM leukemia; COLO 205 colon; HOP-62 NSCLC; HS 578T breast; M14 melanoma; MDA-MB-435; NCI-H522 lung; NCI/ADR-RES ovarian; RPMI-8226 leukemia; SNB-19 CNS.
Holding throughout (experiment): NCI tumour cell line growth inhibition, 48 h

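Exposure lasted 48 hours, with cells grown in 96-well plates and compounds tested at five concentrations. GI50 = concentration required for 50% inhibition of growth. TGI: total growth inhibition.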

Regarding `Cc1c2ccncc2c(C)c2c1c1cc(CO)ccc1n2C`, the GI50 in the assay with CCRF-CEM leukemia was 0.545 µM; in the assay on COLO 205 colon it was 0.373 µM; in the assay on HOP-62 NSCLC it was 0.335 µM; with HS 578T breast it was 0.96 µM; in the assay on M14 melanoma, 0.687 µM; in the assay with MDA-MB-435 it was 0.467 µM. The GI50 with NCI-H522 lung was 0.661 µM; with NCI/ADR-RES ovarian, 0.551 µM; in the assay on RPMI-8226 leukemia it was 0.425 µM; with SNB-19 CNS it was 0.431 µM. Further, the TGI in the assay on CCRF-CEM leukemia stood at 4.18 µM; with COLO 205 colon, 1.94 µM; with HOP-62 NSCLC, 2.05 µM; in the assay on HS 578T breast, 7.86 µM; in the assay with M14 melanoma it was 3.27 µM; in the assay with MDA-MB-435, 3.74 µM. Also, the TGI in the assay on NCI-H522 lung was found to be 3.81 µM; with NCI/ADR-RES ovarian, 7.5 µM; in the assay on RPMI-8226 leukemia, 2.28 µM; in the assay on SNB-19 CNS, 4.24 µM.
As to `COc1cc(/C=C/[N+](=O)[O-])cc(OC)c1OC`, the GI50 is 3.35 µM with CCRF-CEM leukemia; 1.7 µM in the assay with COLO 205 colon; 3.34 µM in the assay on HOP-62 NSCLC; 3.46 µM with HS 578T breast; 2.07 µM with M14 melanoma; 2.8 µM in the assay on MDA-MB-435. In addition, the GI50 is 1.79 µM in the assay on NCI-H522 lung, 3.43 µM with NCI/ADR-RES ovarian, 3.14 µM in the assay with RPMI-8226 leukemia and 5.64 µM with SNB-19 CNS. In addition, the TGI with CCRF-CEM leukemia turned out to be 15.4 µM; with COLO 205 colon, 3.33 µM; in the assay on HOP-62 NSCLC, 13.6 µM; in the assay with HS 578T breast it was 28.1 µM; in the assay on M14 melanoma it was 4.31 µM; with MDA-MB-435 it was 10.2 µM. Besides, the TGI with NCI-H522 lung came to 3.57 µM; with NCI/ADR-RES ovarian, 36.7 µM; in the assay on RPMI-8226 leukemia, 8.59 µM; with SNB-19 CNS, 18.4 µM.
Regarding `Oc1c(Cl)cc(Cl)c2cccnc12`, the GI50 in the assay on CCRF-CEM leukemia is 2.75 µM; in the assay with COLO 205 colon, 3.43 µM; in the assay with HOP-62 NSCLC it was 2.24 µM; in the assay on HS 578T breast, 6.88 µM; in the assay on M14 melanoma, 1.96 µM; in the assay on MDA-MB-435 it was 3.84 µM. Moreover, the GI50 was 1.83 µM with NCI-H522 lung, 3.3 µM with NCI/ADR-RES ovarian, 4.34 µM in the assay on RPMI-8226 leukemia and 3.73 µM in the assay with SNB-19 CNS. Besides, the TGI was more than 100 µM in the assay on CCRF-CEM leukemia; 13.4 µM in the assay on COLO 205 colon; 21.1 µM with HOP-62 NSCLC; more than 100 µM with HS 578T breast; 5.26 µM with M14 melanoma; more than 100 µM with MDA-MB-435. Besides, the TGI with NCI-H522 lung is 4.85 µM; with NCI/ADR-RES ovarian, more than 100 µM; in the assay on RPMI-8226 leukemia, more than 100 µM; in the assay on SNB-19 CNS it was 24.6 µM.
As to `N#CC(C#N)=C(N)/C(C#N)=C/c1ccc2[nH]ccc2c1`, the TGI with CCRF-CEM leukemia, with COLO 205 colon, in the assay on HOP-62 NSCLC, in the assay on HS 578T breast, in the assay with M14 melanoma and in the assay with MDA-MB-435 was more than 100 µM throughout. Besides, the TGI in the assay on NCI-H522 lung, with NCI/ADR-RES ovarian, with RPMI-8226 leukemia and in the assay with SNB-19 CNS was more than 100 µM in each case.
`O=NN(CCCl)C(=O)NC1CCC(=O)NC1=O` (stereo not given): the TGI in the assay on CCRF-CEM leukemia came out at 304 µM; with COLO 205 colon it was 684 µM; with HOP-62 NSCLC it was 505 µM; with HS 578T breast it was 1100 µM; in the assay on M14 melanoma, 905 µM; with MDA-MB-435, 442 µM. Moreover, the TGI turned out to be 485 µM in the assay with NCI-H522 lung, 710 µM in the assay on NCI/ADR-RES ovarian, 617 µM with RPMI-8226 leukemia and 934 µM with SNB-19 CNS.
For `O=C1/C(=C/c2cccc(Br)c2)COc2ccc(O)c(O)c21`, the GI50 is 0.312 µM in the assay on CCRF-CEM leukemia; 1.54 µM in the assay with COLO 205 colon; 1.84 µM in the assay on HOP-62 NSCLC; 2.28 µM with HS 578T breast; 1.6 µM in the assay with M14 melanoma; 1.23 µM in the assay on MDA-MB-435. Further, the GI50 was 0.175 µM with NCI-H522 lung, 2.03 µM in the assay on NCI/ADR-RES ovarian, 0.248 µM with RPMI-8226 leukemia and 1.53 µM in the assay with SNB-19 CNS. Also, the TGI was 1.69 µM in the assay on CCRF-CEM leukemia; 3 µM in the assay with COLO 205 colon; 3.74 µM in the assay on HOP-62 NSCLC; 7.53 µM with HS 578T breast; 3.47 µM in the assay on M14 melanoma; 2.76 µM in the assay with MDA-MB-435. The TGI stood at 0.361 µM in the assay on NCI-H522 lung, 10.3 µM in the assay with NCI/ADR-RES ovarian, 0.649 µM in the assay with RPMI-8226 leukemia and 3.04 µM with SNB-19 CNS.
In the case of `CCN(CC)CCCC(C)Nc1c(-c2ccccc2)cnc2cc(Cl)ccc12` (stereo not given), the GI50 with CCRF-CEM leukemia was 14.4 µM; in the assay with COLO 205 colon it was 1.6 µM; in the assay with HOP-62 NSCLC, 9.62 µM; in the assay with HS 578T breast, 6.82 µM; in the assay on M14 melanoma, 1.86 µM; in the assay with MDA-MB-435, 2.24 µM. Also, the GI50 in the assay on NCI-H522 lung was 7.22 µM; in the assay on NCI/ADR-RES ovarian, 11.6 µM; with RPMI-8226 leukemia, 3.49 µM; in the assay on SNB-19 CNS, 16.6 µM. Moreover, the TGI in the assay with CCRF-CEM leukemia was more than 100 µM; in the assay with COLO 205 colon, 3.23 µM; in the assay on HOP-62 NSCLC, 22.9 µM; with HS 578T breast, 24.7 µM; in the assay with M14 melanoma, 3.44 µM; in the assay with MDA-MB-435 it was 5.31 µM. Besides, the TGI in the assay on NCI-H522 lung came to 19.2 µM; in the assay on NCI/ADR-RES ovarian, 28.3 µM; in the assay on RPMI-8226 leukemia it was 17.1 µM; in the assay on SNB-19 CNS it was 57.7 µM.
